Source: patent publication US10899753B2, “Inhibiting agents for Bruton's tyrosine kinase” (BIOGEN MA INC., priority 2018, dated 2021)

Tests used:
BTK [1] = target: T1, BTK (Homo sapiens (Human), UniProt Q06187); assay: In Vitro BTK Kinase Assay: BTK-POLYGAT-LS ASSAY; format: biochemical; settings: fluorescein-labeled polyGAT peptide 100 nM, BTK enzyme 0.25 nM, 30 minutes, TRF
Procedure, shortened: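 ATP […] and polyGAT peptide (100 nM), final concentrations, in Tris-HCl pH 7.5 kinase buffer with MgCl2, DTT, Triton X-100 and casein. Reaction run 30 min, stopped with EDTA, then 45 min at room temperature.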

BTK [2] = target: T1, BTK; assay: In Vitro PD Assay in Human Whole Blood (pBTK assay); format: cell-based; settings: human heparinized whole blood, 37° C. for 30 min, total BTK capture and phosphotyrosine detection (ECL)
Procedure, shortened: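 Heparinized human venous whole blood spiked with serially diluted compound (0.1% DMSO final) and incubated 30 min at 37° C. Lysed with protease/phosphatase inhibitors (high control +PPi, low control −PPi lacking phosphatase inhibitors); total BTK captured and phosphotyrosine detected.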

T1 sequence (Q06187 whole entry): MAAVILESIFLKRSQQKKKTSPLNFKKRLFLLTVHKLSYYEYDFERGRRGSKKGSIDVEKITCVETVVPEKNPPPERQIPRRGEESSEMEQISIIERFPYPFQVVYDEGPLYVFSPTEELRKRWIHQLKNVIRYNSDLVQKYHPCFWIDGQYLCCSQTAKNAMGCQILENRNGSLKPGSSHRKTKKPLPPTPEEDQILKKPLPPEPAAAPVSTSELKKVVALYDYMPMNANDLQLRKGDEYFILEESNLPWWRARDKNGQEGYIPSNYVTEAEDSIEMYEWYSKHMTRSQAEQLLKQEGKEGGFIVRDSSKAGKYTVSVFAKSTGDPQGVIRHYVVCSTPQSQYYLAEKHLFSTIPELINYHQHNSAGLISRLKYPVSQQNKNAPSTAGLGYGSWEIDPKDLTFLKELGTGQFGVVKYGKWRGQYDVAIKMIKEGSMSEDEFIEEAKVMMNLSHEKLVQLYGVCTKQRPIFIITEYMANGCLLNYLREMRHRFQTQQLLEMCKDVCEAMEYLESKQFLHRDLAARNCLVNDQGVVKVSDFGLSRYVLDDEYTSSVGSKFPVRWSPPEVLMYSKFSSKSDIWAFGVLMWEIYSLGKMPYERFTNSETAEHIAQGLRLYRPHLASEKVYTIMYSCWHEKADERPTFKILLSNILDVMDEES

Row | Compound | IC50 (BTK [1]) [nM] | IC50 (BTK [2]) [nM]
1 | Cc1c(CNC(=O)c2noc(C3(CF)CC3)n2)ccc(-c2ncnc(Nc3cnn(C)c3)n2)c1F [Compound 50, N-(3-fluoro-2-methyl-4-(4-((1-methyl-1H-pyrazol-4-yl)amino)-1,3,5-triazin-2-yl)benzyl)-5-(1-(fluoromethyl)cyclopropyl)-1,2,4-oxadiazole-3-carboxamide] | < 1 | < 100
2 | Cn1ccc(Nc2ncnc(-c3ccc(CNC(=O)c4nc(C(C)(C)C)no4)c(C(F)(F)F)c3F)n2)n1 [Compound 20, 3-(tert-butyl)-N-(3-fluoro-4-(4-((1-methyl-1H-pyrazol-3-yl)amino)-1,3,5-triazin-2-yl)-2-(trifluoromethyl)benzyl)-1,2,4-oxadiazole-5-carboxamide] | < 1 | 500 to 10000
3 | Cn1cc(Nc2ncnc(-c3ccc(CNC(=O)c4noc(C5(C)CC5)n4)c(Cl)c3F)n2)cn1 [Compound 30, N-(2-chloro-3-fluoro-4-(4-((1-methyl-1H-pyrazol-4-yl)amino)-1,3,5-triazin-2-yl)benzyl)-5-(1-methylcyclopropyl)-1,2,4-oxadiazole-3-carboxamide] | < 1 | < 100
4 | Cn1cc(Nc2ncnc(-c3cc4c(cc3F)[C@H](NC(=O)c3nc(C(C)(C)C)no3)CCCC4)n2)cn1 [Compound 87, (R)-3-(tert-butyl)-N-(3-fluoro-2-(4-((1-methyl-1H-pyrazol-4-yl)amino)-1,3,5-triazin-2-yl)-6,7,8,9-tetrahydro-5H-benzo[7]annulen-5-yl)-1,2,4-oxadiazole-5-carboxamide] | < 1 | < 100
5 | Cc1c(CNC(=O)c2cnn(C(C)(C)C)c2)ccc(-c2ncnc(Nc3cnn(C)c3)n2)c1F [Compound 36, 1-(tert-butyl)-N-(3-fluoro-2-methyl-4-(4-((1-methyl-1H-pyrazol-4-yl)amino)-1,3,5-triazin-2-yl)benzyl)-1H-pyrazole-4-carboxamide] | < 1 | 100 to 500
6 | Cc1c(-c2ncnc(Nc3cnn(C)c3)n2)ccc([C@@H](C)NC(=O)c2nc(C(C)(C)C)no2)c1Cl [Compound 78, (R)-3-(tert-butyl)-N-(1-(2-chloro-3-methyl-4-(4-((1-methyl-1H-pyrazol-4-yl)amino)-1,3,5-triazin-2-yl)phenyl)ethyl)-1,2,4-oxadiazole-5-carboxamide] | 1 to 10 | 100 to 500
7 | Cn1ccc(Nc2ncnc(-c3ccc(CNC(=O)c4nc(C(C)(C)C)no4)c(CC(F)F)c3)n2)n1 [Compound 68, 3-(tert-butyl)-N-(2-(2,2-difluoroethyl)-4-(4-((1-methyl-1H-pyrazol-3-yl)amino)-1,3,5-triazin-2-yl)benzyl)-1,2,4-oxadiazole-5-carboxamide] | 1 to 10 | 500 to 10000
8 | Cn1cc(Nc2ncnc(-c3ccc4c(c3)CN(CC(F)(F)F)CC[C@H]4NC(=O)c3coc(C(C)(C)C)n3)n2)cn1 [Compound 92, 2-tert-butyl-N-[(5R)-8-[4-[(1-methylpyrazol-4-yl)amino]-1,3,5-triazin-2-yl]-2-(2,2,2-trifluoroethyl)-1,3,4,5-tetrahydro-2-benzazepin-5-yl]oxazole-4-carboxamide] | < 1 | < 100
9 | Cc1c([C@@H](C)NC(=O)c2noc(C(C)(C)C)n2)ccc(-c2ncnc(Nc3cnn(C)c3)n2)c1F [Compound 73, (R)-5-(tert-butyl)-N-(1-(3-fluoro-2-methyl-4-(4-((1-methyl-1H-pyrazol-4-yl)amino)-1,3,5-triazin-2-yl)phenyl)ethyl)-1,2,4-oxadiazole-3-carboxamide] | < 1 | < 100
10 | Cn1cc(Nc2ncnc(-c3cc4c(cc3F)[C@H](NC(=O)c3noc(C(C)(C)C)n3)CCCC4)n2)cn1 [Compound 86, (R)-5-(tert-butyl)-N-(3-fluoro-2-(4-((1-methyl-1H-pyrazol-4-yl)amino)-1,3,5-triazin-2-yl)-6,7,8,9-tetrahydro-5H-benzo[7]annulen-5-yl)-1,2,4-oxadiazole-3-carboxamide] | < 1 | < 100
11 | Cn1ccc(Nc2ncnc(-c3ccc4c(c3)CCCC[C@H]4NC(=O)c3noc(C(C)(C)C)n3)n2)n1 [Compound 23, 5-tert-butyl-N-[(5R)-2-[4-[(1-methylpyrazol-3-yl)amino]-1,3,5-triazin-2-yl]-6,7,8,9-tetrahydro-5H-benzo[7]annulen-5-yl]-1,2,4-oxadiazole-3-carboxamide] | < 1 | 100 to 500
12 | Cn1cc(Nc2ncnc(-c3ccc4c(c3F)CCCC[C@H]4NC(=O)c3noc(C(C)(C)C)n3)n2)cn1 [Compound 88, (R)-5-(tert-butyl)-N-(1-fluoro-2-(4-((1-methyl-1H-pyrazol-4-yl)amino)-1,3,5-triazin-2-yl)-6,7,8,9-tetrahydro-5H-benzo[7]annulen-5-yl)-1,2,4-oxadiazole-3-carboxamide] | < 1 | < 100
13 | Cn1ccc(Nc2ncnc(-c3ccc(CNC(=O)c4nc(C(C)(C)C)no4)c(C(F)F)c3F)n2)n1 [Compound 66, 3-(tert-butyl)-N-(2-(difluoromethyl)-3-fluoro-4-(4-((1-methyl-1H-pyrazol-3-yl)amino)-1,3,5-triazin-2-yl)benzyl)-1,2,4-oxadiazole-5-carboxamide] | 1 to 10 | 500 to 10000
14 | Cc1cc(-c2ncnc(Nc3ccn(C)n3)n2)ccc1CNC(=O)c1nc(C(C)(C)C)no1 [Compound 2, 3-(tert-butyl)-N-(2-methyl-4-(4-((1-methyl-1H-pyrazol-3-yl)amino)-1,3,5-triazin-2-yl)benzyl)-1,2,4-oxadiazole-5-carboxamide] | < 1 | 500 to 10000
15 | Cc1c(CNC(=O)c2nc(C3(CF)CC3)no2)ccc(-c2ncnc(Nc3cnn(C)c3)n2)c1F [Compound 47, N-(3-fluoro-2-methyl-4-(4-((1-methyl-1H-pyrazol-4-yl)amino)-1,3,5-triazin-2-yl)benzyl)-3-(1-(fluoromethyl)cyclopropyl)-1,2,4-oxadiazole-5-carboxamide] | < 1 | < 100
16 | Cc1cc(-c2ncnc(Nc3cnn(C)c3)n2)c(F)cc1CNC(=O)c1noc(C2(CF)CC2)n1 [Compound 51, N-(5-fluoro-2-methyl-4-(4-((1-methyl-1H-pyrazol-4-yl)amino)-1,3,5-triazin-2-yl)benzyl)-5-(1-(fluoromethyl)cyclopropyl)-1,2,4-oxadiazole-3-carboxamide] | < 1 | 100 to 500
17 | Cn1cc(Nc2ncnc(-c3ccc(CNC(=O)c4noc(C(C)(C)C)n4)c(C(F)(F)F)c3)n2)cn1 [Compound 17, 5-(tert-butyl)-N-(4-(4-((1-methyl-1H-pyrazol-4-yl)amino)-1,3,5-triazin-2-yl)-2-(trifluoromethyl)benzyl)-1,2,4-oxadiazole-3-carboxamide] | < 1 | 100 to 500
18 | Cn1cc(Nc2ncnc(-c3ccc(CNC(=O)c4noc(C(C)(C)C)n4)c(Cl)c3)n2)cn1 [Compound 15, 5-(tert-butyl)-N-(2-chloro-4-(4-((1-methyl-1H-pyrazol-4-yl)amino)-1,3,5-triazin-2-yl)benzyl)-1,2,4-oxadiazole-3-carboxamide] | < 1 | 100 to 500
19 | Cc1c([C@@H](C)NC(=O)c2nc(C(C)(C)C)no2)ccc(-c2ncnc(Nc3ccn(C)n3)n2)c1F [Compound 72, (R)-3-(tert-butyl)-N-(1-(3-fluoro-2-methyl-4-(4-((1-methyl-1H-pyrazol-3-yl)amino)-1,3,5-triazin-2-yl)phenyl)ethyl)-1,2,4-oxadiazole-5-carboxamide] | < 1 | 100 to 500
20 | Cc1c(CNC(=O)c2noc(C3(C)CC3)n2)ccc(-c2ncnc(Nc3ccn(C)n3)n2)c1F [Compound 113, N-(3-fluoro-2-methyl-4-(4-((1-methyl-1H-pyrazol-3-yl)amino)-1,3,5-triazin-2-yl)benzyl)-5-(1-methylcyclopropyl)-1,2,4-oxadiazole-3-carboxamide] | < 1 | 100 to 500
21 | Cc1cc(-c2ncnc(Nc3cnn(C)c3)n2)c(F)cc1CNC(=O)c1noc(C2(C)CC2)n1 [Compound 59, N-(5-fluoro-2-methyl-4-(4-((1-methyl-1H-pyrazol-4-yl)amino)-1,3,5-triazin-2-yl)benzyl)-5-(1-methylcyclopropyl)-1,2,4-oxadiazole-3-carboxamide] | < 1 | 100 to 500
22 | Cc1c(CNC(=O)c2coc(C(C)(C)C)n2)ccc(-c2ncnc(Nc3ccn(C)n3)n2)c1F [Compound 100, 2-(tert-butyl)-N-(3-fluoro-2-methyl-4-(4-((1-methyl-1H-pyrazol-3-yl)amino)-1,3,5-triazin-2-yl)benzyl)oxazole-4-carboxamide] | < 1 | 500 to 10000
23 | Cn1cc(Nc2ncnc(-c3ccc4c(c3)CCCC[C@H]4NC(=O)c3noc(C(C)(C)C)n3)n2)cn1 [Compound 33, 5-tert-butyl-N-[(5R)-2-[4-[(1-methylpyrazol-4-yl)amino]-1,3,5-triazin-2-yl]-6,7,8,9-tetrahydro-5H-benzo[7]annulen-5-yl]-1,2,4-oxadiazole-3-carboxamide] | < 1 | < 100
24 | Cc1cc(-c2ncnc(Nc3cnn(C)c3)n2)c(F)cc1CNC(=O)c1nnn(C(C)(C)C)n1 [Compound 58, 2-(tert-butyl)-N-(5-fluoro-2-methyl-4-(4-((1-methyl-1H-pyrazol-4-yl)amino)-1,3,5-triazin-2-yl)benzyl)-2H-tetrazole-5-carboxamide] | < 1 | 100 to 500
25 | Cc1c([C@@H](C)NC(=O)c2nc(C(C)(C)C)no2)ccc(-c2ncnc(Nc3cnn(C)c3)n2)c1F [Compound 74, (R)-3-(tert-butyl)-N-(1-(3-fluoro-2-methyl-4-(4-((1-methyl-1H-pyrazol-4-yl)amino)-1,3,5-triazin-2-yl)phenyl)ethyl)-1,2,4-oxadiazole-5-carboxamide] | < 1 | < 100
